Reference: patent US20100173022A1, “COMPOSITION FOR THE TREATMENT OF DIABETES MELLITUS AND METABOLIC SYNDROME” (priority 2007, published 2010)

What was measured:
[1] = system: rat islets; assay: in vitro insulinotropic test using rat islets; format: cell-based; settings: dose 162(1 mM) micrograms; mean ± SEM
Text: In an in vitro test using rat islets, the insulinotropic ability of ADM01 was investigated against standard (tolbutamide) and placebo control.

[2] = system: experimental diabetic rats (Streptozotocin-Nicotinamide model); assay: 30-days study in Streptozotocin-Nicotinamide experimental diabetic rats; format: in vivo, rat; settings: after 10, 20 and 30 days of treatment vs base line (0 day); P<0.05
Method: In another study the effect of ADM01 on blood glucose levels in experimental diabetic rats, using the Streptozotocin-Nicotinamide model, was investigated. After confirming the stabilization of diabetes mellitus in the experimental animals a single dose study was carried out in which the effect of a single dose administration of different dosages of ADM01 on blood glucose levels was investigated against vehicle control.
After the single dose study, a 30-days study was carried out in which the effect of daily administration of ADM01 on blood glucose levels was investigated. The effect of doses of 200, 400 and 800 mg/kg body weight respectively were investigated.

[3] = system: streptozotocin induced type I diabetes rats; assay: Streptozotocin induced type I diabetes model; format: in vivo, rat; settings: insulin 2.5, single dose, at 2 hrs
Method: In another study streptozotocin was administered to the test animals, causing the destruction of the beta cells of pancreas. In rats a dose of STZ of 60 mg/kg ip causes stable hyperglycemia by day 7 post administration. Generally, this model mimics type I Diabetes Mellitus. Groups were treated for 15 days with ADM01, ADM01+insulin and insulin.
In the same study the effects of a single dose administration on fasting glucose levels was studied.

Molecule	Amount of insulin during stimulated insulin release (glucose, 16 mM) [1] [picomoles/L]	Amount of insulin release at basal glucose levels (2 mM) [1] [picomoles/L]	serum blood glucose levels [2]	serum insulin levels [2]	fall of FPG-levels [3] [%]
CCCCNC(=O)NS(=O)(=O)c1ccc(C)cc1 [Tolbutamide]	239.48 ± 11.43	107.08 ± 15.35	significantly decreased	significantly increased	
insulin					23.3
